Consider eight compounds from ChEMBL document CHEMBL1221313, “Synthesis of pyrrolomorphinan derivatives as kappa opioid agonists” (Bioorg Med Chem Lett, 2010).

One assay is filed under the species Cavia porcellus. The assay can be described thus: Selectivity ratio of Ki for delta opioid receptor in guinea pig forebrain to Ki for kappa opioid receptor in guinea pig cerebellum. Type of assay: tissue-based.
The target in assay [1] is Opioid receptor (mu and kappa) (Cavia porcellus) (UniProt P41144+P97266). The assay is described as follows: Selectivity ratio of Ki for mu opioid receptor in guinea pig forebrain to Ki for kappa opioid receptor in guinea pig cerebellum. Type of assay: tissue-based.
Chain of Opioid receptor (mu and kappa) (Cavia porcellus) (P41144 whole entry, looked up): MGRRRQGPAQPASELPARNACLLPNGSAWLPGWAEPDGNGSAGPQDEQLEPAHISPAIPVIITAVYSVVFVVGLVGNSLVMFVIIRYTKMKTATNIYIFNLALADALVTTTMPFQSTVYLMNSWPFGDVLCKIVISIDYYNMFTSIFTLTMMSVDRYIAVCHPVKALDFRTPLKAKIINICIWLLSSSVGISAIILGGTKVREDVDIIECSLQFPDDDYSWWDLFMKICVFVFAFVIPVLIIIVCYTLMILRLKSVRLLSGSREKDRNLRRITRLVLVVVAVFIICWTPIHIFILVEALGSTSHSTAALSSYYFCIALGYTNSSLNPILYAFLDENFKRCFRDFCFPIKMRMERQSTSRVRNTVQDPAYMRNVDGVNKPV
Chain of Opioid receptor (mu and kappa) (Cavia porcellus) (P97266 whole entry, looked up): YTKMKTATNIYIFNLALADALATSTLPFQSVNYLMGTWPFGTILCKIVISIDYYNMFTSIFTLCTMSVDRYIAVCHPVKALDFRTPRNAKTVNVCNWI
Another assay has as its target Mu-type opioid receptor (Cavia porcellus, UniProt P97266). The assay is described as follows: Displacement of [3H]DAMGO from mu opioid receptor in guinea pig forebrain.
A short description of assay [2]: Displacement of [3H]NTI from delta opioid receptor in guinea pig forebrain. More on the design: species or system Cavia porcellus. For orientation: In a radioligand displacement assay an active substance lowers the binding of a labelled ligand.
The target of assay [3] is Kappa-type opioid receptor (Cavia porcellus, UniProt P41144). The assay can be described thus: Displacement of [3H]U69593 from kappa opioid receptor in guinea pig cerebellum. Type of assay: tissue-based.
Chain of Kappa-type opioid receptor (P41144 whole entry): as the sequence (P41144 whole entry, looked up) above
The subject of a further assay is Mus musculus. The assay is described as follows: Antinociceptive activity in sc dosed mouse assessed as effect on acetic acid-induced writhing. Type of assay: functional. Background: In writhing tests, fewer writhes than in controls are read as antinociception.

Chain of Mu-type opioid receptor (P97266 whole entry): as the sequence (P97266 whole entry, looked up) above

In the case of `CCC/C=C/c1cc2c(n1C)[C@@H]1Oc3c(O)ccc4c3[C@@]13CCN(CC1CC1)[C@H](C4)[C@]3(O)C2`, the Ratio Ki worked out at 0.9 in the assay listed under Cavia porcellus and 0.8 in assay [1]. In addition, the values for the Ki (on Mu-type opioid receptor; in assay [2]; in assay [3]) were 5.85 nM, 6.58 nM and 7.38 nM, respectively.

On to `Cc1occc1C(=O)/C=C/c1cc2c(n1C)[C@@H]1Oc3c(O)ccc4c3[C@@]13CCN(CC1CC1)[C@H](C4)[C@]3(O)C2`, for which the Ratio Ki was 1.3 in the assay filed under Cavia porcellus and 5.4 in assay [1]. For the same compound, the Ki on Mu-type opioid receptor worked out at 6.2 nM; in assay [2] it was 1.47 nM; in assay [3], 1.15 nM.

Take `Cn1c(/C=C/C(=O)Cc2ccccc2)cc2c1[C@@H]1Oc3c(O)ccc4c3[C@@]13CCN(CC1CC1)[C@H](C4)[C@]3(O)C2`: the Ratio Ki in the assay listed under Cavia porcellus came to 1.8; in assay [1], 5.8. The inhibition constant (Ki) on Mu-type opioid receptor was determined as 6.58 nM; in assay [2] it was 2.08 nM; in assay [3], 1.13 nM.

With `CCCCCC(=O)/C=C/c1cc2c(n1C)[C@@H]1Oc3c(O)ccc4c3[C@@]13CCN(CC1CC1)[C@H](C4)[C@]3(O)C2`, the Ratio Ki is 2.9 in the assay filed under Cavia porcellus and 12 in assay [1]. Besides, the Ki on Mu-type opioid receptor was determined as 15 nM; in assay [2], 3.55 nM; in assay [3] it was 1.24 nM. Besides, the Activity entry with Mus musculus was “Dose-dependent effect”. The ED50 in the assay with Mus musculus worked out at 5.87 mg/kg.

In the case of `Cn1c(/C=C/C(=O)c2ccccc2)cc2c1[C@@H]1Oc3c(O)ccc4c3[C@@]13CCN(CC1CC1)[C@H](C4)[C@]3(O)C2`, the values for the Ratio Ki (in the assay listed under Cavia porcellus; in assay [1]) were 8 and 8.1, respectively. Further, the figures for the Ki (on Mu-type opioid receptor; in assay [2]; in assay [3]) were 3.76 nM, 3.74 nM and 0.467 nM, respectively.

In the case of `Cn1c(CCC(=O)CCc2ccccc2)cc2c1[C@@H]1Oc3c(O)ccc4c3[C@@]13CCN(CC1CC1)[C@H](C4)[C@]3(O)C2`, the Ratio Ki was found to be 4.6 in the assay filed under Cavia porcellus and 1.6 in assay [1]. The figures for the Ki (at Mu-type opioid receptor; in assay [2]; in assay [3]) were 0.548 nM, 1.59 nM and 0.342 nM, respectively.

As for `Cn1c(/C=C/c2ccccc2)cc2c1[C@@H]1Oc3c(O)ccc4c3[C@@]13CCN(CC1CC1)[C@H](C4)[C@]3(O)C2`, in assay [1], the Ratio Ki is 0.5. In addition, the Ki at Mu-type opioid receptor was found to be 1.76 nM; in assay [3] it was 3.79 nM. This compound also gave an IC50 in assay [2] of over 1000 nM.

Take `Cn1c(/C=C/C(=O)CCc2ccccc2)cc2c1[C@@H]1Oc3c(O)ccc4c3[C@@]13CCN(CC1CC1)[C@H](C4)[C@]3(O)C2`: the Ratio Ki in the assay listed under Cavia porcellus is 1.9; in assay [1], 7.4. Further, the figures for the Ki (at Mu-type opioid receptor; in assay [2]; in assay [3]) were 6.89 nM, 1.73 nM and 0.935 nM, respectively.

In general, Ki refers to the equilibrium dissociation constant of an inhibitor or competing ligand from its target. A higher Ki goes with lower affinity. What is called ED50 is the dose that gives a 50% effect, or the effect in half of the subjects. As usually defined, the IC50 is the concentration that gives 50% inhibition.
